# Experimental data from patent US8741897B2, “Glucocorticoid mimetics, methods of making them, pharmaceutical compositions and uses thereof” (Boehringer Ingelheim Pharmaceuticals Inc., priority 2003, dated 2014).
# System: glucocorticoid receptor function
# Experiment: one or more of the above assays (GR binding and glucocorticoid receptor cell assays: aromatase, IL-6, TAT, MMTV-Luc, IL-8, ICAM-Luc)
# Assay type: cell-based
# Settings: assay not specified per compound
# Procedure: B. Glucocorticoid Receptor Cell Assays
# 1. Induction of Aromatase in Fibroblasts (Cell Assay for Transactivation)
# Dexamethasone, a synthetic ligand to the glucocorticoid receptor (GR), induces expression of aromatase in human foreskin fibroblast cells. The activity of aromatase is measured by the conversion of testosterone to estradiol in culture media.
# On the day of the experiment, the media in the wells is replaced with fresh media. Cells are treated with test compounds to final concentrations of 10^−5 M to 10^−8 M, and testosterone to a final concentration of 300 ng/mL. Each well has a total volume of 100 μL. Samples are made in duplicates. Control wells include: (a) wells that receive testosterone only, and (b) wells that receive testosterone plus 2 μM of dexamethasone to provide maximum induction of aromatase. Plates are incubated at 37° C. overnight (15 to 18 hours), and supernatants are harvested at the end of incubation. […] The amount of estradiol is inversely proportional to the ELISA signals in each well. The extent of aromatase induction by test compounds is expressed as a relative percentage to dexamethasone. EC50 values of test compounds are derived by non-linear curve fitting.
# 2. Inhibition of IL-6 Production in Fibroblasts (Cell Assay for Transrepression)
# Human foreskin fibroblast cells produce IL-6 in response to stimulation by proinflammatory cytokine IL-1.
# On the next day, media in the wells is replaced with fresh media. Cells are treated with IL-1 (rhIL-1α, R&D Systems Cat. No. 200-LA) to a final concentration of 1 ng/mL, and with test compounds to final concentrations of 10^−5 M to 10^−8 M, in a total volume of 200 μL per well. Samples are done in duplicates. […] Positive control wells receive IL-1 only and represent maximum (or 100%) amount of IL-6 production. Plates are incubated at 37° C. overnight (15 to 18 hours), and supernatants are harvested at the end of incubation. IL-6 levels in the supernatants are determined by the ELISA kits for IL-6 (MedSystems Diagnostics GmbH, Vienna, Austria, Cat. No. BMS213TEN) according to manufacture's instructions. The extent of inhibition of IL-6 by test compounds is expressed in percentage relative to positive controls. IC50 values of test compounds are derived by non-linear curve fitting.
# Evaluation of agonist or antagonist activity of compounds binding to the glucocorticoid receptor may be determined by any of the assays.
# 3. Modulation of Tyrosine Aminotransferase (TAT) Induction in Rat Hepatoma Cells
# Testing of compounds for agonist or antagonist activity in induction of tyrosine aminotransferase (TAT) in rat hepatoma cells.
# H4-II-E-C3 cells were incubated overnight in 96 well plates (20,000 cells/100 μL/well) in MEM medium containing 10% heat inactivated FBS and 1% nonessential amino acids. On the next day, cells were stimulated with the indicated concentrations of dexamethasone or test compound (dissolved in DMSO, final DMSO concentration 0.2%) for 18 hours. Control cells were treated with 0.2% DMSO. After 18 hours, the cells were lysed in a buffer containing 0.1% Triton X-100 and the TAT activity was measured in a photometric assay using tyrosine and alpha-ketoglutarate as substrates.
# For measuring antagonist activity, the hepatoma cells were pre-stimulated by addition of dexamethasone (concentration ranges from 3×10^−9 M to 3×10^−8 M) shortly before the test compound was applied to the cells.
# 4. Modulation of MMTV-Luc Induction in HeLa Cells
# Testing of compounds for agonist or antagonist activity in stimulation of MMTV-(mouse mammary tumor virus) promoter in HeLa cells.
# Cells were cultured overnight in DMEM medium without phenol red, supplemented with 3% CCS (charcoal treated calf serum) and then transferred to 96 well plates (15,000 cells/100 μL/well).
row,Molecule,activity as agonists of the glucocorticoid receptor function in one or more of the above assays
1,"CC(C)(CC(O)(Cc1cc2nc(CN)ccc2[nH]1)C(F)(F)F)c1cc(Cl)cc2c1OCC2 (stereo not drawn) [2-(5-Aminomethyl-1H-pyrrolo[3,2-b]pyridin-2-ylmethyl)-4-(5-chloro-2,3-dihydrobenzofuran-7-yl)-1,1,1-trifluoro-4-methylpentan-2-ol]",potent agonists
2,"COc1ccc(-c2cccnc2)cc1C(C)(C)CC(O)(Cc1cc2cc(Oc3ccccc3)ncc2[nH]1)C(F)(F)F (stereo not drawn) [1,1,1-Trifluoro-4-(2-methoxy-5-pyridin-3-ylphenyl)-4-methyl-2-(5-phenoxy-1H-pyrrolo[2,3-c]pyridin-2-ylmethyl)pentan-2-ol]",potent agonists
3,CN(C)Cc1c(CC(O)(CC(C)(C)c2cc(F)ccc2O)C(F)(F)F)[nH]c2ccncc12 (stereo not drawn),potent agonists
4,"CC(C)(CC(O)(Cc1cc2cnccc2[nH]1)C(F)F)c1cc(F)ccc1O (stereo not drawn) [2-[4,4-Difluoro-3-hydroxy-1,1-dimethyl-3-(1H-pyrrolo[3,2-c]pyridin-2-ylmethyl)butyl]-4-fluorophenol]",agonists
5,"CC(C)C(O)(Cc1cc2ccncc2[nH]1)CC(C)(C)c1cc(Cl)cc2c1OCC2 (stereo not drawn) [5-(5-Chloro-2,3-dihydrobenzofuran-7-yl)-2,5-dimethyl-3-(1H-pyrrolo[2,3-c]pyridin-2-ylmethyl)hexan-3-ol]",agonists
6,"CCC(=O)c1ccc2[nH]c(CC(O)(CC(C)(C)c3cc(Cl)cc4c3OCC4)C(F)(F)F)cc2n1 (stereo not drawn) [1-{2-[4-(5-Chloro-2,3-dihydrobenzofuran-7-yl)-2-hydroxy-4-methyl-2-trifluoromethylpentyl]-1H-pyrrolo[3,2-b]pyridin-5-yl}propan-1-one]",potent agonists
7,"CC(C)(CC(O)(Cc1cc2cc(-c3ccccc3)nnc2[nH]1)C(F)(F)F)c1cccc(F)c1 (stereo not drawn) [1,1,1-Trifluoro-4-(3-fluorophenyl)-4-methyl-2-(3-phenyl-7H-pyrrolo[2,3-c]pyridazin-6-ylmethyl)pentan-2-ol]",potent agonists
8,"CCN(C)c1cc2cc(CC(O)(CC(C)(C)c3cc(F)ccc3OC)C(F)(F)F)[nH]c2cn1 (stereo not drawn) [2-[5-(Ethylmethylamino)-1H-pyrrolo[2,3-c]pyridin-2-ylmethyl]-1,1,1-trifluoro-4-(5-fluoro-2-methoxyphenyl)-4-methylpentan-2-ol]",potent agonists
9,"4-Pyrimidin-5-yl-2-[4,4,4-trifluoro-3-hydroxy-1,1-dimethyl-3-(1H-pyrrolo[2,3-c]pyridin-ylmethyl)butyl]phenol",potent agonists
10,"CC(C)(CC(O)(Cn1ccc2c1CCCC2=O)C(F)(F)F)c1cccc2c1OCC2 (stereo not drawn) [1-[4-(2,3-Dihydrobenzofuran-7-yl)-2-hydroxy-4-methyl-2-trifluoromethylpentyl]-1,5,6,7-tetrahydroindol-4-one]",agonists
11,"CC(C)(CC(O)(Cc1cc2ncncc2[nH]1)C(F)(F)F)c1ccc(F)cc1O (stereo not drawn) [5-Fluoro-2-[4,4,4-trifluoro-3-hydroxy-1,1-dimethyl-3-(5H-pyrrolo[3,2-d]pyrimidin-6-ylmethyl)butyl]phenol]",potent agonists
12,"COc1ccc(-c2ccccc2C#N)cc1C(C)(C)CC(O)(Cc1cc2cc(N3CCCCC3)ncc2[nH]1)C(F)(F)F (stereo not drawn) [4′-Methoxy-3′-[4,4,4-trifluoro-3-hydroxy-1,1-dimethyl-3-(5-piperidin-1-yl-1H-pyrrolo[2,3-c]pyridin-2-ylmethyl)butyl]biphenyl-2-carbonitrile]",potent agonists
13,"CC(C)(CC(O)(Cc1cc2cc(C#N)ccc2[nH]1)C(F)(F)F)c1cc(S(C)(=O)=O)cc2c1OCC2 (stereo not drawn) [2-[2-Hydroxy-4-(5-methanesulfonyl-2,3-dihydrobenzofuran-7-yl)-4-methyl-2-trifluoromethylpentyl]-1H-indole-5-carbonitrile]",potent agonists
14,"Cc1ccc(F)cc1C(C)(C)CC(O)(Cc1[nH]c2cnccc2c1C)C(C)(C)C (stereo not drawn) [5-(5-Fluoro-2-methylphenyl)-2,2,5-trimethyl-3-(3-methyl-1H-pyrrolo[2,3-c]pyridin-2-ylmethyl)hexan-3-ol]",agonists
15,"Cc1cncc2[nH]c(CC(O)(CC(C)(C)c3cccc(F)c3)C(F)(F)F)cc12 (stereo not drawn) [1,1,1-Trifluoro-4-(3-fluorophenyl)-4-methyl-2-(4-methyl-1H-pyrrolo[2,3-c]pyridin-2-ylmethyl)pentan-2-ol]",potent agonists
16,"CC(C)(CC(O)(Cc1cc2cnccc2[nH]1)C(F)(F)F)c1cccc(CN2CCOCC2)c1 (stereo not drawn) [1,1,1-Trifluoro-4-methyl-4-(3-morpholin-4-ylmethylphenyl)-2-(1H-pyrrolo[3,2-c]pyridin-2-ylmethyl)pentan-2-ol]",potent agonists
17,"COc1nccc2[nH]c(CC(O)(CC(C)(C)c3cc(F)ccc3C)C(F)(F)F)cc12 (stereo not drawn) [1,1,1-Trifluoro-4-(5-fluoro-2-methylphenyl)-2-(4-methoxy-1H-pyrrolo[3,2-c]pyridin-2-ylmethyl)-4-methylpentan-2-ol]",potent agonists
18,"CC(C)C(O)(Cc1cc2cc(-c3ccccc3)ncc2[nH]1)CC(C)(C)c1cc(Cl)cc2c1OCC2 (stereo not drawn) [5-(5-Chloro-2,3-dihydrobenzofuran-7-yl)-2,5-dimethyl-3-(5-phenyl-1H-pyrrolo[2,3-c]pyridin-2-ylmethyl)hexan-3-ol]",agonists
19,"CC(C)(CC(O)(Cc1[nH]c2ccccc2c1Br)C(F)(F)F)c1cccc(F)c1 (stereo not drawn) [2-(3-Bromo-1H-indol-2-ylmethyl)-1,1,1-trifluoro-4-(3-fluorophenyl)-4-methylpentan-2-ol]",potent agonists
20,"CC(C)(CC(O)(Cc1cc2nc(-c3ccccc3)ncc2[nH]1)C(F)(F)F)c1cc(Cl)cc2c1OCC2 (stereo not drawn) [4-(5-Chloro-2,3-dihydrobenzofuran-7-yl)-1,1,1-trifluoro-4-methyl-2-(2-phenyl-5H-pyrrolo[3,2-d]pyrimidin-6-ylmethyl)pentan-2-ol]",potent agonists
21,"CC(C)(CC(O)(Cc1cc2cc(-c3ccccn3)ccc2[nH]1)C(F)(F)F)c1cc(Cl)cc2c1OCC2 (stereo not drawn) [4-(5-Chloro-2,3-dihydrobenzofuran-7-yl)-1,1,1-trifluoro-4-methyl-2-(5-pyridin-2-yl-1H-indol-2-ylmethyl)pentan-2-ol]",potent agonists
22,"CC(C)(CC(O)(Cc1cc2nc(CN3CCOCC3)ccc2[nH]1)C(F)(F)F)c1cc(Cl)ccc1O (stereo not drawn) [4-Chloro-2-[4,4,4-trifluoro-3-hydroxy-1,1-dimethyl-3-(5-morpholin-4-ylmethyl-1H-pyrrolo[3,2-b]pyridin-2-ylmethyl)butyl]phenol]",potent agonists
23,"COc1ccc(-c2ccccc2)cc1C(C)(C)CC(O)(Cc1cc2cc(OC(C)C)ncc2[nH]1)C(F)(F)F (stereo not drawn) [1,1,1-Trifluoro-2-(5-isopropoxy-1H-pyrrolo[2,3-c]pyridin-2-ylmethyl)-4-(4-methoxybiphenyl-3-yl)-4-methylpentan-2-ol]",potent agonists
24,"CC(C)(CC(O)(Cc1cc2cnccc2[nH]1)C(C)(C)C)c1cc(Cl)cc2c1OCC2 (stereo not drawn) [5-(5-Chloro-2,3-dihydrobenzofuran-7-yl)-2,2,5-trimethyl-3-(1H-pyrrolo[3,2-c]pyridin-2-ylmethyl)hexan-3-ol]",agonists
